Measured values taken from patent US20210332024A1, “MODULATORS OF PIN1 ACTIVITY AND USES THEREOF” (Yeda Research and Development Co. Ltd., priority 2019, published 2021).

Columns and labels:
[1] = Thiol reactivity assay (DTNB); type: physicochemical; settings: 200 μM compound, pH 7.4, 37° C.
Description: 50 μM DTNB (dithionitrobenzoic acid) was incubated with 200 μM TCEP (tris(2-carboxytehyl)phosphine) in 20 mM sodium phosphate buffer (pH 7.4) with 150 mM NaCl, for 5 minutes at room temperature, in order to obtain TNB^2− (thionitrobenzoate dianion). 200 μM compounds were subsequently added to the TNB^2−, followed by immediate UV absorbance measurement at 412 nm (at 37° C.). The UV absorbance was acquired every 15 minutes for 7 hours. The assay was performed in a 384-well plate using a Spark™ 10M plate reader (Tecan). Background absorbance of compounds was subtracted by measuring the absorbance at 412 nm of each compound under the same conditions without DTNB. Compounds were measured in triplicates. The data was fitted to a second order reaction equation such that the rate constant k is the slope of ln([A][B0]/[B][A0]), where [A0] and [B0] are the initial concentrations of the compound (200 μM) and TNB^2− (100 μM) respectively, and [A] and [B] are the remaining concentrations as a function of time, as determined from the spectrometric measurement. Linear regression using Prism® software was performed to fit the rate against the first four hours of measurements.
In order to estimate the influence of the various lipophilic moieties on “warhead” reactivity [Flanagan et al., J Med Chem 2014, 57:10072-10079; Lonsdale et al., J Chem Inf Model 2017, 57:3124-3137; Dahal et al., Medchemcomm 2016, 7:864-872], the thiol reactivity of the top ten binders of the second and third generation was assessed using a high-throughput assay previously applied to the entire fragment library, as described in Resnick et al. [J Am Chem Soc 2019, 141:8951-8968]. In brief, the second-order rate constant was evaluated for a model thiol, which reflects trends in general reactivity towards thiol groups.

[2] = molecular target: T1, catalytic domain of Pin1 (Homo sapiens, UniProt Q13526); experiment: Intact protein LC/MS labeling of Pin1; type: binding
T1 construct: The purified catalytic domain of Pin1 was incubated with the fragment library
T1 sequence (Q13526 52-163 limits assumed): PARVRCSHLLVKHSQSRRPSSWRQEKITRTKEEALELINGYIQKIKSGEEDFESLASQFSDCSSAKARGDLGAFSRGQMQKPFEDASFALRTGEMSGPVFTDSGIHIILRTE
Description: 993 compounds were transferred to a 384-well plate working copy by combining 0.5 μl of 20 mM stock solution of four or five compounds per well. The catalytic domain of Pin1 (2 μM) in 20 mM Tris, 75 mM NaCl, pH 7.5 was incubated with 200 μM for each compound and moderately shaken for 24 hours at 4° C. The reaction was stopped by the addition of formic acid to 0.4% (v/v) final concentration.
Liquid chromatography/mass spectroscopy runs were performed on an Acquity™ UPLC® H-class system (Waters) in positive ion mode using electrospray ionization (ESI). UPLC separation was performed on a C4 column (300 Å, 1.7 μM, […]). The column was held at 40° C., and the autosampler at 10° C. Mobile solution A was 0.1% formic acid in water and mobile phase B was 0.1% formic acid in acetonitrile. Run flow was 0.4 ml/minute; and a gradient of 20% B for 2 minutes, increasing linearly to 60% B for 3 minutes, holding at 60% B for 1.5 minutes, changing to 0% B in 0.1 minute and holding at 0% for 1.4 minutes, was used. Desolvation temperature was 500° C. with a flow rate of 1000 liters/hour. The capillary voltage was 0.69 kV and cone voltage 46 V. Raw data was processed using OpenLynx™ software and deconvoluted using the MaxEnt tool. Labeling assignment was performed as described in Resnick et al. [J Am Chem Soc 2019, 141:8951-8968].
For the screening 2 μl of each of the 448 click products as 50 μM DMSO stocks were transferred into a 384-well plate working plate. 48 μl of catalytic domain of Pin1 (2 μM) in 20 mM Tris (pH 7.5) with 75 mM NaCl were added and moderately shaken and incubated for 15 minutes at room temperature. The reaction was stopped by the addition of formic acid to 0.4% (v/v) final concentration (20 μl). The mixtures were analyzed by liquid chromatography/mass spectroscopy analogously to the electrophile library incubations described herein. Hits were retrospectively analyzed by liquid chromatography/mass spectroscopy (LC-MS) to ensure reaction completion.
For each measured well, processed peaks were searched to match the mass of unlabeled protein or common small adducts of the unlabeled protein, which were found in the control sample or labeled protein. Labeling percentage for a compound was determined as the labeling of a specific compound divided by the overall detected protein species. Peaks whose mass could not be assigned were discarded from the overall labeling calculation. Data was analyzed using a python script for processing the MaxEnt-deconvoluted spectra. Peaks were normalized from ion counts to percentages, where the highest peak is defined as 100%. The unlabeled protein mass is deduced from a reference well that contains just the protein.
The purified catalytic domain of Pin1 was incubated with the fragment library (2 μM protein, 200 μM compound; 24 hours at 4° C.), followed by intact protein liquid chromatography/mass-spectrometry (LC/MS) to identify and quantify compound labeling. FIG. 1 depicts an example of a compound identified in this manner.
Based on the docking predictions, a total of 26 compounds that featured a range of small or bulky aliphatic, arylic, biphenylic or heterocyclic side-chains (structures depicted in FIG. 5), were synthesized or purchased. In order to identify potent binders, the irreversible labeling efficiency of these second-generation compounds was assessed alongside the original screening hits under more stringent conditions, with a 1:1 ratio of protein to compound (2 μM compound; 1 hour at room temperature).
For further optimization of the lipophilic moiety, an alkyne side chain-bearing analog was prepared, which was derivatized with 448 different azides using copper-catalyzed azide-alkyne cycloaddition (CuAAC).

[3] = 2 μM Pin1 with 2 μM test compound for 1 hour at room temperature
[4] = 2 μM Pin1 with 2 μM test compound for 15 minutes at room temperature
[5] = 2 μM Pin1 with 200 μM test compound for 24 hours at 4° C.

Compound | Reactivity Log k [1] | Reactivity k [1] | Labeling [%] [2, 3] | Labeling [%] [2, 4] | Labeling [%] [2, 5]
O=C(CCl)N(Cc1ccccc1)C1CCS(=O)(=O)C1 (stereo not drawn) [Pin1-437] | −6.82 | 1.51e-07 M⁻¹ s⁻¹ | – | – | –
O=C(CCl)N(Cc1ccco1)C1CCS(=O)(=O)C1 (stereo not drawn) [Pin1-128] | −6.83 | 1.47e-07 M⁻¹ s⁻¹ | 25% | – | –
O=C(CCl)N(Cc1cn(-c2ccc(CO)cc2)nn1)C1CCS(=O)(=O)C1 (stereo not drawn) [Compound P1-02-H08] | −5.88 | 1.32e-06 M⁻¹ s⁻¹ | – | 73% | –
O=C(CCl)N(C1CCCC1)C1CCS(=O)(=O)C1 (stereo not drawn) [PCM-0102313] | −6.97 | 1.07e-07 M⁻¹ s⁻¹ | – | – | 83%
CC(C)CN(C(=O)CCl)C1CCS(=O)(=O)C1 (stereo not drawn) [Pin1-3-15, 2-chloro-N-(sulfolan-3-yl)-N-isobutylacetamide] | −7.11 | 7.77e-08 M⁻¹ s⁻¹ | 21% | – | –
O=C(CCl)N(c1ccccc1)C1CCS(=O)(=O)C1 (stereo not drawn) [PCM-0102755] | −6.81 | 1.54e-07 M⁻¹ s⁻¹ | – | – | 83%
O=C(CCl)N(C1CC1)C1CCS(=O)(=O)C1 (stereo not drawn) [PCM-0102832] | −7.22 | 6.02e-08 M⁻¹ s⁻¹ | – | – | 72%
Cc1cccc(N(C(=O)CCl)C2C=CS(=O)(=O)C2)c1 (stereo not drawn) [PCM-0102579] | – | – | – | – | 100%
CCCN(C(=O)CCl)C1CCS(=O)(=O)C1 (stereo not drawn) [Pin1-028] | −6.80 | 1.59e-07 M⁻¹ s⁻¹ | 16% | – | –
O=C(CCl)N(Cc1cccc(F)c1)C1CCS(=O)(=O)C1 (stereo not drawn) [Pin1-2-5] | −6.88 | 1.31e-07 M⁻¹ s⁻¹ | 24% | – | –
O=C(CCl)N(C1CCCCC1)C1CCS(=O)(=O)C1 (stereo not drawn) [PCM-0102760] | −7.00 | 1e-07 M⁻¹ s⁻¹ | – | – | 100%
O=C(CCl)N(Cc1ccccc1-c1cccc(C(F)(F)F)c1)C1CCS(=O)(=O)C1 (stereo not drawn) [Pin1-3-8] | −7.09 | 8.22e-08 M⁻¹ s⁻¹ | 23% | – | –
CCC(C)N(C(=O)CCl)C1CCS(=O)(=O)C1 (stereo not drawn) [Pin1-053] | −6.91 | 1.24e-07 M⁻¹ s⁻¹ | 28% | – | –
COCCN(C(=O)CCl)C1CCS(=O)(=O)C1 (stereo not drawn) [Pin1-324] | −6.80 | 1.59e-07 M⁻¹ s⁻¹ | 12% | – | –
O=C(CCl)NC1CCS(=O)(=O)C1 (stereo not drawn) [PCM-0102138] | −6.92 | 1.2e-07 M⁻¹ s⁻¹ | 0% | – | 56%
CCN(C(=O)CCl)C1CCS(=O)(=O)C1 (stereo not drawn) [PCM-0102105] | −6.96 | 1.1e-07 M⁻¹ s⁻¹ | 0% | – | 85%
O=C(CCl)N(c1ccc(F)cc1)C1C=CS(=O)(=O)C1 (stereo not drawn) [PCM-0102868] | – | – | – | – | 100%
COc1ccc(-n2cc(CN(C(=O)CCl)C3CCS(=O)(=O)C3)nn2)cc1 (stereo not drawn) [Compound P1-04-B02] | −5.76 | 1.73e-06 M⁻¹ s⁻¹ | – | 69% | –

Compound | Reactivity Log k [1] | Reactivity k [1] | Labeling [%] [2, 3] | Labeling [%] [2, 4] | Labeling [%] [2, 5]
Cc1ccc(N(C(=O)CCl)C2C=CS(=O)(=O)C2)cc1C (stereo not drawn) [PCM-0103082] | – | – | – | – | 69%
O=C(CCl)N(Cc1cn(-c2cc(Br)ccc2O)nn1)C1CCS(=O)(=O)C1 (stereo not drawn) [Compound P1-02-E11] | −5.98 | 1.04e-06 M⁻¹ s⁻¹ | – | 70% | –
O=C(CCl)N(Cc1ccccc1-c1ccccc1)C1CCS(=O)(=O)C1 (stereo not drawn) [Pin1-2-10] | −6.89 | 1.3e-07 M⁻¹ s⁻¹ | 25% | – | –
O=C(CCl)N(c1ccccc1)C1C=CS(=O)(=O)C1 (stereo not drawn) [PCM-0102372] | – | – | – | – | 100%
COC(=O)c1ccc(-n2cc(CN(C(=O)CCl)C3CCS(=O)(=O)C3)nn2)cc1 (stereo not drawn) [Compound P1-01-B11] | −6.86 | 1.37e-07 M⁻¹ s⁻¹ | – | 89% | –
CC(=O)c1ccc(-n2cc(CN(C(=O)CCl)C3CCS(=O)(=O)C3)nn2)cc1 (stereo not drawn) [Compound P1-02-B04] | −5.90 | 1.26e-06 M⁻¹ s⁻¹ | – | 62% | –
O=C(CCl)N(CC1CCCC1)C1CCS(=O)(=O)C1 (stereo not drawn) [Pin1-3-14, 2-chloro-N-(sulfolan-3-yl)-N-(cyclopentylmethyl)acetamide] | −7.15 | 7.03e-08 M⁻¹ s⁻¹ | – | – | –
CC1(NC(=O)CCl)CCS(=O)(=O)C1 (stereo not drawn) [PCM-0102230] | −7.05 | 8.87e-08 M⁻¹ s⁻¹ | 0% | – | 87%
O=C(CCl)N(Cc1cn(-c2ccc(O)cc2)nn1)C1CCS(=O)(=O)C1 (stereo not drawn) [Compound P1-03-C04] | −6.42 | 3.78e-07 M⁻¹ s⁻¹ | – | 72% | –
O=C(CCl)N(CC1CCCO1)C1CCS(=O)(=O)C1 (stereo not drawn) [Pin1-838] | −6.85 | 1.41e-07 M⁻¹ s⁻¹ | 16% | – | –
NS(=O)(=O)c1ccc(-n2cc(CN(C(=O)CCl)C3CCS(=O)(=O)C3)nn2)cc1 (stereo not drawn) [Compound P1-03-G07] | −5.86 | 1.37e-06 M⁻¹ s⁻¹ | – | 73% | –
CC(C)(C)CN(C(=O)CCl)C1(C)CCS(=O)(=O)C1 (stereo not drawn) [Pin1-18] | −7.77 | 1.69e-08 M⁻¹ s⁻¹ | – | – | –
O=C(CCl)N(Cc1cn(-c2cccc(Cl)c2)nn1)C1CCS(=O)(=O)C1 (stereo not drawn) [Compound P1-01-G10] | −6.92 | 1.2e-07 M⁻¹ s⁻¹ | – | 67% | –
CN(C)CCN(C(=O)CCl)C1CCS(=O)(=O)C1 (stereo not drawn) [Pin1-707] | −8.93 | 1.17e-09 M⁻¹ s⁻¹ | 0% | – | –
Cc1ccc(N(C(=O)CCl)C2C=CS(=O)(=O)C2)cc1 (stereo not drawn) [PCM-0102539] | – | – | – | – | 100%
CC(c1ccccc1)N(C(=O)CCl)C1CCS(=O)(=O)C1 (stereo not drawn) [Pin1-2-2] | −7.09 | 8.06e-08 M⁻¹ s⁻¹ | 27% | – | –
O=C(CCl)NCC1CCS(=O)(=O)C1 (stereo not drawn) [PCM-0102896] | – | – | – | – | 42%
